Measured values taken from patent US7923228B2, “Methods and compositions for growth of hydrocarbons in Botryococcus sp” (priority 2005, dated 2011).

Tested on: Botryococcus sp. colonies
Experiment: Flotation (buoyancy) of sunken colonies as visual readout of hydrocarbon content
Format: cell-based
Source text: Previous investigations (Ohmori, et al. 1984; and Wolf, et al, 1985) verified that colonies containing greater than 20% of dry weight as botryococcenoid hydrocarbons were buoyant and that colonies containing less than 5% hydrocarbons remained sunken at the bottom of the culture vessel, providing a visual method for selecting cells with commercial-grade hydrocarbons. […] Colonies in hydrocarbon-enhancement were placed in the dark without supplemental carbon dioxide gas to eliminate artifacts of flotation from bubbles. Environmental conditions were 150 μE/m^2/sec PAR to 1700 μE/m^2/sec PAR at 25-37° Centigrade. Nutrient chemicals were reagent grade in all laboratory-scale experiments. In field-scale tests, fertilizer grade chemical nutrients were provided. In order to minimize or eliminate ammonia, nitrates were optionally kiln dried prior to admixture. Supplementation with 0.1% to 100% carbon dioxide gas or carbonate (e.g., 10 mg/ml sodium bicarbonate or potassium bicarbonate) increased hydrocarbon synthesis substantially, especially, when under the highest light intensities with soluble elements of the present invention. […]

## phosphates
Subtractive matrix analysis, most rapid in presence of soluble Mg, Mn, Fe, Zn+2
  total phosphate concentration that stimulated the rise of colonies to the surface: greater than 80 mM
Two weeks or more in 300 mM phosphate
  state of colonies after long exposure: remained floating, but cleared to amber
